The text below walks through data of US20210268030A1, “FIBROADIPOGENIC PROGENITOR-DERIVED EXOSOMES FOR REGENERATION OF DYSTROPHIC MUSCLES” (EXOFIX S.R.L., priority 2018, published 2021).

Each structure is given as a SMILES string.

One assay concerns Notch3. As to the kind of experiment: Notch3 transcripts in MuSCs isolated from treated mdx mice. Particulars: MuSCs isolated from mdx mice treated with TSA. The assay is classed as in vivo. How it is done: (§1) Animals were used at the specified age and treated for the indicated periods with daily intra peritoneal injections of Trichostatin A, TSA (0.6 mg/kg/day; #T8552, Sigma), dissolved in phospate-saline solution or in phospate-saline alone as vehicle control (CTR). Muscle injury was performed by intramuscular injection in Tibliais Anterior (TA) of Cardiotoxin—CTX− (10 μM, 10 mg/mL) (#L8102, Lotaxan Valence, France, http://www.latoxan.com), 3 days before mice sacrifice.
For RNA-sequencing sample preparation, MuSCs and FAPs were freshly isolated by FACS from 6 C57BI6 mdx male mice 8-weeks old treated or not with TSA for 15 days. RNA was collected using Trizol) reagent (#T9424, Sigma). About 100 ng/μL of total RNA was sent in duplicate to IGA (Istituto di Genomica Applicata, Udine) for RNA sequencing using Illumina TruSeq Stranded Total RNA kit Ribo-Zero GOLD on Illumina Hiseq2500 platform.
To investigate this hypothesis, we evaluated the effect of FAP-derived exosomes from HDACi-treated or control-treated mdx mice on MuSCs within single fibres isolated from WT mice. Freshly isolated single muscle fibres from tibialis anterior, extensor digitorum longus, gastrocnemius and soleus of C57BL6J mice were incubated with FAP-derived exosomes or whole conditioned media, and their effect on MuSCs was evaluated by monitoring the expression of Pax7, MyoD and DNA synthesis (EdU incorporation). […]

For the next assay, the system named is CD63. As to the kind of experiment: In situ immunofluorescence for CD63 on muscle sections. The assay is classed as in vivo, mdx mice. How it is done:
as §1
For immunofluorescence analysis, cryo-sections and cells were fixed in 4% PFA for 10 min and permeabilized with 100% cold acetone (#32201, Sigma) for 6 min at −20° C. or 100% cold Methanol (#32213, Sigma) for 6 min at −20° or with 0.25% Triton for 15 min at RT. Muscle sections were blocked for 1 h with a solution containing 4% BSA (#A7030, Sigma) in PBS. […] Sections were incubated with DAPI in PBS for 5 minutes for nuclear staining, washed in PBS, and mounted with glycerol 3:1 in PBS. […]

In another assay the test system is miR-206. As to the kind of experiment: qPCR of exosomal miR-206 from dissociated tibialis anterior muscles. The assay is classed as in vivo, mdx mice. The following applies: TSA-treated mdx muscle compared to untreated control. How it is done:
Exosomes were purified from tibialis anterior gently dissociated in serum-free DMEM (24 h). Cell debris and organelles were eliminated by centrifugation at 2,000 g for 20 min and exosomes were isolated using TEIR.
For microRNA validation, Total exosomal RNA was extracted with Total Exosome RNA Protein Isolation Kit (#4478545, Invitrogen by Thermo Fisher Scientific) and was retro-transcribed using the Qiagen reverse transcription kit (miScript II RT Kit, #218161, Qiagen) and pre-amplified using (miScript PreAMP PCR Kit, #331451, Qiagen).
All the conditions are provided in the manufacturer protocol.
Of note, transgenic miR-206 upregulation has been exploited as tool for the treatment of DMD and other muscular disorders (Liu et al., 2012; Williams et al., 2009; Fry et al., 2017). […] The same pattern could be observed in mdx mice, in which an abundant miR-206 signal was detected in the interstitium of tibialis anterior muscles, overlapping with the immunofluorescence staining of the FAP's marker Sca-1 (FIG. 3H). […] We performed a quantitative assessment of exosomal miR-206, by isolating whole tibialis anterior (TA) muscles from TSA-treated mdx muscle or untreated control mdx mice, followed by gentle dissociation and exosome isolation.

The subject of another assay is mdx mice. Particulars: young vs old mdx mice; Mozzetta et al. 2013, Saccone et al. 2014; cited from earlier work.

`CC(/C=C/C(=O)NO)=C\[C@@H](C)C(=O)c1ccc(N(C)C)cc1` [TSA, Trichostatin A]: the Notch3 transcripts entry with Notch3 was “reduced”. Moreover, the “CD63 signal in the interstitium of muscles” value in the assay on CD63 (1 year-old mdx mice) is “could not increase”. Further, the CD63-positive interstitial signal result in the assay on CD63 (mdx young mice (1.5-month), compared to young mdx CTR) is recorded as “significant increase”. In addition, the “increase of miR-206” value in the assay with miR-206 was about 7 fold. In addition, the regeneration result with mdx mice is reported as “promotes regeneration in young, but not old”.
